In ChEMBL document CHEMBL1142325, “Discovery of a novel series of biphenyl benzoic acid derivatives as potent and selective human beta3-adrenergic receptor agonists with good oral bioavailability. Part I” (J Med Chem, 2008):
Values belong to the compound of their own block, whether it stands above or below them.

Assays:
[1] = Oral bioavailability in dog; type: ADME, organism-based, Canis lupus familiaris; conditions: in vivo
[2] = Oral bioavailability in monkey; type: ADME, organism-based, Macaca mulatta; conditions: rhesus monkey, in vivo
in vitro = conditions: PAMPA, pH 6.5
[3] = Bioavailability in dog at […], po by cassette assay; type: ADME, organism-based, Canis lupus familiaris; conditions: in vivo
[4] = Cmax in dog at […], po by cassette assay; type: ADME, organism-based, Canis lupus familiaris; design: route oral; conditions: in vivo
[5] = AUC (0 to 24 hrs) in dog at […], po by cassette assay; type: ADME, organism-based, Canis lupus familiaris; design: time < 24 hr, route oral; conditions: plasma
in vivo [6] = conditions: dog, iv, 1 mg/mL
in vivo [7] = conditions: dog, iv, 1 mg/mL; remark: listed apart in the source
Rhesus monkey [8] = assay: (§1) Bioavailability in monkey at 0.32 mg/kg, po by cassette assay; type: ADME, organism-based, Macaca mulatta; conditions: in vivo
[9] = Terminal half life in monkey at 0.186 mg/kg, iv by cassette assay; type: ADME, organism-based, Macaca mulatta; design: dose 0.186 mg/kg, route intravenous; conditions: rhesus monkey, in vivo, read-out: beta t1/2 (converted)
[10] = Bioavailability in dog at 0.2 mg/kg, po by cassette assay; type: ADME, organism-based, Canis lupus familiaris; conditions: in vivo
[11] = Cmax in rat at 0.32 mg/kg, po by cassette assay; type: ADME, organism-based; design: dose 0.32 mg/kg, route oral; conditions: in vivo
[12] = AUC (0 to 24 hrs) in rat at 0.32 mg/kg, po by cassette assay; type: ADME, organism-based; design: time < 24 hr, dose 0.32 mg/kg, route oral; conditions: plasma
[13] = Cmax in monkey at 0.32 mg/kg, po by cassette assay; type: ADME, organism-based, Macaca mulatta; design: dose 0.32 mg/kg, route oral; conditions: rhesus monkey, in vivo
Rhesus monkey [14] = assay: (§2) AUC (0 to 24 hrs) in monkey at 0.32 mg/kg, po by cassette assay; type: ADME, organism-based, Macaca mulatta, Plasma; design: time < 24 hr, dose 0.32 mg/kg, route oral; conditions: in vivo, 24 h
[15] = Cmax in dog at 2.0 mg/kg, po by cassette assay; type: ADME, organism-based, Canis lupus familiaris; design: dose 2 mg/kg, route oral; conditions: in vivo
[16] = AUC (0 to 24 hrs) in dog at 2.0 mg/kg, po by cassette assay; type: ADME, organism-based, Canis lupus familiaris; design: time < 24 hr, dose 2 mg/kg, route oral; conditions: plasma
[17] = Intrinsic clearance in monkey liver microsome; type: ADME, Macaca mulatta; conditions: rhesus monkey, liver microsomes
[18] = Intrinsic clearance in human liver microsome; type: ADME; conditions: liver microsomes
[19] = Terminal half life in dog at 0.1 mg/kg, iv by cassette assay; type: ADME, organism-based, Canis lupus familiaris; design: dose 0.1 mg/kg, route intravenous; conditions: in vivo, read-out: beta t1/2 (converted)
[20] = Total clearance in dog at 0.1 mg/kg, iv by cassette assay; type: ADME, organism-based, Canis lupus familiaris; design: dose 0.1 mg/kg, route intravenous; conditions: in vivo
[21] = Terminal half life in rat at 0.32 mg/kg, iv by cassette assay; type: ADME, organism-based; design: dose 0.32 mg/kg, route intravenous; conditions: in vivo, read-out: beta t1/2 (converted)
[22] = Total clearance in rat at 0.32 mg/kg, iv by cassette assay; type: ADME, organism-based; design: dose 0.32 mg/kg, route intravenous; conditions: in vivo
[23] = Bioavailability in rat at 0.32 mg/kg, po by cassette assay; type: ADME, organism-based; conditions: in vivo
[24] = as §1; type: ADME, organism-based, Macaca mulatta; conditions: rhesus monkey, in vivo
[25] = Total clearance in monkey at 0.32 mg/kg, iv by cassette assay; type: ADME, organism-based, Macaca mulatta; design: dose 0.32 mg/kg, route intravenous; conditions: rhesus monkey, in vivo
[26] = as §2; type: ADME, organism-based, Macaca mulatta, Plasma; design: time < 24 hr, dose 0.32 mg/kg, route oral; conditions: rhesus monkey, plasma
[27] = Intrinsic clearance in dog liver microsome; type: ADME, Canis lupus familiaris; conditions: liver microsomes
[28] = Cmax in dog at 0.1 mg/kg, po by cassette assay; type: ADME, organism-based, Canis lupus familiaris; design: dose 0.1 mg/kg, route oral; conditions: in vivo
[29] = AUC (0 to 24 hrs) in dog at 0.1 mg/kg, po by cassette assay; type: ADME, organism-based, Canis lupus familiaris; design: time < 24 hr, dose 0.1 mg/kg, route oral; conditions: plasma
[30] = Bioavailability in dog at 0.1 mg/kg, po by cassette assay; type: ADME, organism-based, Canis lupus familiaris; conditions: in vivo
[31] = Terminal half life in monkey at 0.32 mg/kg, iv by cassette assay; type: ADME, organism-based, Macaca mulatta; design: dose 0.32 mg/kg, route intravenous; conditions: rhesus monkey, in vivo, read-out: beta t1/2 (converted)
in vivo [32] = conditions: dog, po, 1 mg/mL
in vivo [33] = conditions: dog, po, 1 mg/mL; remark: listed apart in the source
in vivo [34] = conditions: dog, plasma, po, 1 mg/mL
[35] = Total clearance in dog at 0.83 mg/kg, iv by cassette assay; type: ADME, organism-based, Canis lupus familiaris; design: dose 0.83 mg/kg, route intravenous; conditions: in vivo
[36] = Bioavailability in dog at 3.2 mg/kg, po by cassette assay; type: ADME, organism-based, Canis lupus familiaris; conditions: in vivo
[37] = Terminal half life in monkey at 0.83 mg/kg, iv by cassette assay; type: ADME, organism-based, Macaca mulatta; design: dose 0.83 mg/kg, route intravenous; conditions: rhesus monkey, in vivo, read-out: beta t1/2 (converted)
[38] = Total clearance in monkey at 0.83 mg/kg, iv by cassette assay; type: ADME, organism-based, Macaca mulatta; design: dose 0.83 mg/kg, route intravenous; conditions: rhesus monkey, in vivo
[39] = Bioavailability in monkey at 1.0 mg/kg, po by cassette assay; type: ADME, organism-based, Macaca mulatta; conditions: rhesus monkey, in vivo
[40] = Terminal half life in dog at 0.83 mg/kg, iv by cassette assay; type: ADME, organism-based, Canis lupus familiaris; design: dose 0.83 mg/kg, route intravenous; conditions: in vivo, read-out: beta t1/2 (converted)
[41] = Cmax in rat at 1.0 mg/kg, po by cassette assay; type: ADME, organism-based; design: dose 1 mg/kg, route oral; conditions: in vivo
[42] = AUC (0 to 24 hrs) in rat at 1.0 mg/kg, po by cassette assay; type: ADME, organism-based; design: time < 24 hr, dose 1 mg/kg, route oral; conditions: plasma
[43] = Cmax in dog at 3.2 mg/kg, po by cassette assay; type: ADME, organism-based, Canis lupus familiaris; design: dose 3.2 mg/kg, route oral; conditions: in vivo
[44] = AUC (0 to 24 hrs) in dog at 3.2 mg/kg, po by cassette assay; type: ADME, organism-based, Canis lupus familiaris; design: time < 24 hr, dose 3.2 mg/kg, route oral; conditions: plasma
[45] = Cmax in monkey at 1.0 mg/kg, po by cassette assay; type: ADME, organism-based, Macaca mulatta; design: dose 1 mg/kg, route oral; conditions: rhesus monkey, in vivo
[46] = AUC (0 to 24 hrs) in monkey at 1.0 mg/kg, po by cassette assay; type: ADME, organism-based, Macaca mulatta; design: time < 24 hr, dose 1 mg/kg, route oral; conditions: rhesus monkey, plasma
[47] = Cmax […] at 1.0 mg/kg, po by cassette assay; type: ADME, organism-based; design: dose 1 mg/kg, route oral; conditions: in vivo
[48] = AUC (0 to 24 hrs) […] at 1.0 mg/kg, po by cassette assay; type: ADME, organism-based; design: time < 24 hr, dose 1 mg/kg, route oral; conditions: plasma
[49] = Intrinsic clearance in rat liver microsome; type: ADME; conditions: liver microsomes
[50] = Terminal half life in rat at 0.83 mg/kg, iv by cassette assay; type: ADME, organism-based; design: dose 0.83 mg/kg, route intravenous; conditions: in vivo, read-out: beta t1/2 (converted)
[51] = Total clearance in rat at 0.83 mg/kg, iv by cassette assay; type: ADME, organism-based; design: dose 0.83 mg/kg, route intravenous; conditions: in vivo
[52] = Bioavailability in rat at 1.0 mg/kg, po by cassette assay; type: ADME, organism-based; conditions: in vivo

SMILES: O=C(O)c1ccc(-c2ccc(CCNC[C@H](O)c3cccc(Cl)c3)cc2)cc1OC1CCCCC1
Papp (in vitro): > 30 ×10⁻⁶ cm/s

SMILES: CC(C)Oc1cc(-c2ccc(CCNC[C@H](O)c3cccc(Cl)c3)cc2)ccc1C(=O)O
bioavailability [24]: 83%
clearance [25]: 0.9 mL/min/kg
Cmax [11]: 146 ng/mL
AUC(0-t) at 24 h [12]: 700 ng·h/mL
Cmax [13]: 171 ng/mL
AUC(0-t) at 24 h [26]: 4980 ng·h/mL
CLint scaled [27]: < 1 mL/min/kg
CLint scaled [18]: < 1 mL/min/kg
Cmax [28]: 13 ng/mL
AUC(0-t) at 24 h [29]: 149 ng·h/mL
half-life [19]: 594 min
clearance [20]: 4.9 mL/min/kg
bioavailability [30]: 45%
half-life [21]: 288 min
clearance [22]: 4.4 mL/min/kg
bioavailability [23]: 61%
half-life [31]: 1120 min
Papp (in vitro): > 30 ×10⁻⁶ cm/s

SMILES: O=C(O)c1ccc(-c2ccc(CCNC[C@H](O)c3ccccc3)cc2)cc1OC1CCCCC1
Papp (in vitro): > 30 ×10⁻⁶ cm/s

SMILES: O=C(O)c1ccc(Oc2ccc(CCNC[C@H](O)c3cccc(Cl)c3)cc2)cc1
clearance (in vivo [6]): 4.1 mL/min/kg
bioavailability (in vivo [32]): 40%
Cmax (in vivo [33]): 236 ng/mL
AUC(0-t) at 24 h (in vivo [34]): 2470 ng·h/mL
half-life (in vivo [7]): 372 min

SMILES: CCOC(=O)COc1ccc2c(c1)C[C@@H](NC[C@H](O)c1cccc(Cl)c1)CCC2
clearance [35]: 3.7 mL/min/kg
bioavailability [36]: 73%
half-life [37]: 137 min
clearance [38]: 11.8 mL/min/kg
bioavailability [39]: 35%
half-life [40]: 97.8 min
Cmax [41]: 38 ng/mL
AUC(0-t) at 24 h [42]: 83 ng·h/mL
Cmax [43]: 2070 ng/mL
AUC(0-t) at 24 h [44]: 10600 ng·h/mL
Cmax [45]: 184 ng/mL
AUC(0-t) at 24 h [46]: 398 ng·h/mL
Cmax [47]: 1340 ng/mL
AUC(0-t) at 24 h [48]: 4100 ng·h/mL
CLint scaled [49]: 35.4 mL/min/kg
CLint scaled [27]: 35.4 mL/min/kg
CLint scaled [18]: 18.2 mL/min/kg
half-life [50]: 18 min
clearance [51]: 47.9 mL/min/kg
bioavailability [52]: 29%

SMILES: O=C(O)c1cccc(-c2cccc(NCCNC[C@H](O)c3cccc(Cl)c3)c2)c1 [SOLABEGRON]
bioavailability [2]: 46%

Next, values leading:

bioavailability [1]: 27%
bioavailability [2]: 4%
SMILES: O=S(=O)(Nc1ccc(CCNC[C@H](O)c2cccnc2)cc1)c1ccc(-c2nc(-c3ccc(C(F)(F)F)cc3)cs2)cc1

Papp (in vitro): 26 ×10⁻⁶ cm/s
SMILES: CC(C)Cc1cc(-c2ccc(CCNC[C@H](O)c3ccccc3)cc2)ccc1C(=O)O

Papp (in vitro): 10 ×10⁻⁶ cm/s
SMILES: CC(C)Sc1cc(-c2ccc(CCNC[C@H](O)c3ccccc3)cc2)ccc1C(=O)O

bioavailability [3]: > 95%
Cmax [4]: 111 ng/mL
AUC(0-t) at 24 h [5]: 1980 ng·h/mL
clearance (in vivo [6]): 4 mL/min/kg
half-life (in vivo [7]): 738 min
SMILES: O=C(O)c1ccc(-c2ccc(CCNC[C@H](O)c3cccc(Cl)c3)cc2)cc1

F (Rhesus monkey [8]): 62%
half-life [9]: 1330 min
bioavailability [10]: 68%
Cmax [11]: 94.7 ng/mL
AUC(0-t) at 24 h [12]: 565 ng·h/mL
Cmax [13]: 185 ng/mL
AUC (Rhesus monkey [14]): 209 ng·h/mL
Cmax [15]: 25 ng/mL
AUC(0-t) at 24 h [16]: 438 ng·h/mL
CLint scaled [17]: < 1 mL/min/kg
CLint scaled [18]: < 1 mL/min/kg
half-life [19]: 870 min
clearance [20]: 4.8 mL/min/kg
half-life [21]: 570 min
clearance [22]: 7.5 mL/min/kg
bioavailability [23]: 80%
Papp (in vitro): 18 ×10⁻⁶ cm/s
SMILES: CC(C)Oc1cc(-c2ccc(CCNC[C@H](O)c3ccccc3)cc2)ccc1C(=O)O

Papp (in vitro): 3.3 ×10⁻⁶ cm/s
SMILES: COc1cc(-c2ccc(CCNC[C@H](O)c3cccc(Cl)c3)cc2)ccc1C(=O)O
